From patent US8461150B2, “Chalcone linked pyrrolo[2,1-c][1, 4]benzodiazepine hybrids as potential anticancer agents and process for the preparation thereof” (Council of Scientific & Industrial Research, priority 2008, dated 2013)

Key:
[1] = test system: duplex-form calf thymus DNA (CT-DNA); experiment: Thermal denaturation studies with calf thymus DNA; type: binding; conditions: [PBD]:[DNA] molar ratio 1:5, CT-DNA 100 μM, ligand 20 μM, pH 7.00; for ΔTμ (° C.) after incubation at 37 °C. for 0 h: 0 h incubation; for ΔTμ (° C.) after incubation at 37 °C. for 18 h: 18 h incubation
Procedure: These compounds have also been subjected to thermal denaturation studies with duplex-form calf thymus DNA (CT-DNA) using an modification of a reported procedure. Working solutions in aqueous buffer (10 mM NaH2PO4/Na2HPO4, 1 mM Na2EDTA, pH 7.00+0.01) containing CT-DNA (100 μm in phosphate) and the PBD (20 μm) have been prepared by addition of concentrated PBD solutions in DMSO to obtain a fixed [PBD]/[DNA] molar ratio of 1:5. The DNA-PBD solutions have been incubated at 37° C. for 0 and 18 h prior to analysis. Samples have been monitored at 260 nm using a Beckman DU-800 spectrophotometer fitted with high performance temperature controller, and heated at 1° C. min^−1 in the 40-110° C. range. DNA helix→coil transition temperatures (Tm) have been obtained from the maxima in the d(A260)/d T derivative plots. Drug-induced alterations in DNA melting behavior are given by: ΔTm=Tm(DNA+PBD)−Tm(DNA alone), where the Tm value for the PBD-free CT-DNA is 68.5±0.01.

human tumour cell lines = experiment: In vitro cytotoxicity, mean graph midpoints (MG_MID) over human tumour cell lines; type: cell-based; conditions: for Log10LC50 mean graph midpoint (MG_MID): 50% cell death; for Log10LC50 mean graph midpoint (MG_MID) / Log10GI50 mean graph midpoint (MG_MID) / Log10TGI mean graph midpoint (MG_MID): human tumour cell lines, 48 h exposure, SRB; for cytotoxicity against some cancer cell lines: in words, refers to Table 3; for Log10TGI mean graph midpoint (MG_MID): total cell growth inhibition
Procedure: (§1) Biological Activity: The in vitro cell line studies were carried out at the National Cancer Institute, Maryland, USA.
(§2) 6b, 6c, 6g, 10a and 10b were evaluated for in vitro anticancer activity against sixty human tumour cells derived from nine cancer types (leukemia, non-small-cell lung, colon, CNS, melanoma, ovarian, prostate, renal and breast cancer) as shown in (Table 1 and 2). For the compound, dose response curves for each cell line were measured at a minimum of five concentrations at 10 fold dilutions. A protocol of 48 h continuous drug exposure was used and a sulforhodamine B (SRB) protein assay was used to estimate cell viability or growth. The concentration causing 50% cell growth inhibition (GI50), total cell growth inhibition (TGI 0% growth) and 50% cell death (LC50, −50% growth) compared with the control was calculated.

[2] = test system: Prostate cancer cell lines; experiment: NCI in vitro anticancer screen, SRB assay, 48 h, panel average; type: cell-based, human; conditions: average of six to eight cell lines, 48 h exposure
Procedure: as §1
(§3) Cytotoxicity: • The compounds 6b) 7-Methoxy-8-{4-[1-(4-fluorophenyl)-3-(4-hydroxy-3-methoxyphenyl)-2-propen-1-one]butyl}-oxy-(11aS)-1,2,3,11a-5H-pyrrolo[2,1-c][1,4]benzodiazepin-5-one; • (6c) 7-Methoxy-8-{5-[1-(4-fluorophenyl)-3-(4-hydroxy-3-methoxyphenyl)-2-propen-1-one]pentyl}-oxy-(11aS)-1,2,3,11a-5H-pyrrolo[2,1-c][1,4]benzodiazepin-5-one; • (6g) 7-Methoxy-8-{3-[1-(2-hydroxyphenyl)-3-(4-hydroxy-3-methoxyphenyl)-2-propen-1-one]propyl}-oxy-(11aS)-1,2,3,11a-5H-pyrrolo[2,1-c][1,4]benzodiazepin-5-one; • (10a) 7-Methoxy-8-{3-[3-(4-hydroxy-3-methoxyphenyl)-1-(2,4-dimethyl-3-quinolyl)-2-propen-1-one]propyl}-oxy-(11aS)-1,2,3,11a-5H-pyrrolo[2,1-c][1,4]benzodiazepin-5-one • (10b) 7-Methoxy-8-{4-[3-(4-hydroxy-3-methoxyphenyl)-1-(2,4-dimethyl-3-quinolyl)-2-propen-1-one]butyl}-oxy-(11aS)-1,2,3,11a-5H-pyrrolo[2,1-c][1,4]benzodiazepin-5-one; were evaluated for in vitro anticancer activity against […] derived from […] (leukemia, ovarian, renal, melanoma, CNS, colon, prostate, lung, cervix and breast cancer) as shown in (Table 1, 2 and 3)
as §2
(§4) Each cancer type represents the average of six to eight different cancer cell lines.

Renal cancer cell lines = experiment: as above; type: cell-based, human; conditions: average of six to eight cell lines, 48 h exposure
Procedure: as §1, §3, §2, §4

Breast cancer cell lines = experiment: as above; type: cell-based, human; conditions: average of six to eight cell lines, 48 h exposure
Procedure: as §1, §3, §2, §4

Colon cancer cell lines = experiment: as above; type: cell-based, human; conditions: average of six to eight cell lines, 48 h exposure
Procedure: as §1, §3, §2, §4

[3] = test system: Ovarian cancer cell lines; experiment: as above; type: cell-based, human; conditions: average of six to eight cell lines, 48 h exposure
Procedure: as §1, §3, §2, §4

[4] = test system: Melanoma cancer cell lines; experiment: as above; type: cell-based, human; conditions: average of six to eight cell lines, 48 h exposure
Procedure: as §1, §3, §2, §4

[5] = test system: Leukemia cancer cell lines; experiment: as above; type: cell-based, human; conditions: average of six to eight cell lines, 48 h exposure
Procedure: as §1, §3, §2, §4

[6] = test system: Non-small cell lung cancer cell lines; experiment: as above; type: cell-based, human; conditions: average of six to eight cell lines, 48 h exposure
Procedure: as §1, §3, §2, §4

CNS cancer cell lines = experiment: as above; type: cell-based, human; conditions: average of six to eight cell lines, 48 h exposure
Procedure: as §1, §3, §2, §4

UO-31 (Renal) = experiment: Cytotoxicity in selected cancer cell lines (SRB, 48 h); type: cell-based, human
Procedure: as §1, §2
(§5) Each cancer type represents the average of six to nine different cancer cell lines. In vitro evaluation of cytotoxic activity. The compound 6b, 6c, 6g 10a and 10b were evaluated for in vitro anticancer activity against nine human tumour cells derived from six cancer types (leukemia, colon, prostate, melanoma, ovarian, lung, cervix and breast cancer) as shown in Table 3. […] Compounds 6b, 6c, 6g, 10a and 10b have been evaluated for their in vitro cytotoxicity in selected human cancer cell lines of colon (Colo205), lung (NCI-H522, NCI-H226), colon (colo-205), prostate (DU145, PC3), ovarian (IGROV1, HT1080), and breast (MDA-MB-435, Zr-75-1), melanoma (LOXMIVI, VACC-62, SK-MEL-5) origin. A protocol of 48 h continuous drug exposure has been used and an […] has been used to estimate cell viability or growth. The results are expressed as percent of cell growth determined relative to that of untreated control cells

SK-MEL-5 (Melanoma) = experiment: as above; type: cell-based, human
Procedure: as §1, §2, §5

CAKI-1 (Renal) = experiment: as above; type: cell-based, human
Procedure: as §1, §2, §5

CCRF-CEM (Leukemia) = experiment: as above; type: cell-based, human
Procedure: as §1, §2, §5

NCI/ADR-RES (Breast) = experiment: as above; type: cell-based, human
Procedure: as §1, §2, §5

[7] = test system: NCI-H522 (Non-small cell lung); experiment: as above; type: cell-based, human
Procedure: as §1, §2, §5

M14 (Melanoma) = experiment: as above; type: cell-based, human
Procedure: as §1, §2, §5

OVCAR-3 (Ovarian) = experiment: as above; type: cell-based, human
Procedure: as §1, §2, §5

[8] = test system: NCI-H23 (Non-small cell lung); experiment: as above; type: cell-based, human
Procedure: as §1, §2, §5

| SMILES | ΔTμ (° C.) after incubation at 37 °C. for 0 h [1] [°C] | ΔTμ (° C.) after incubation at 37 °C. for 18 h [1] [°C] | Log10LC50 mean graph midpoint (MG_MID) (human tumour cell lines) | Log10GI50 mean graph midpoint (MG_MID) (human tumour cell lines) | cytotoxicity against some cancer cell lines (human tumour cell lines) | Log10TGI mean graph midpoint (MG_MID) (human tumour cell lines) | Log GI50 (concentration in mol/L causing 50% growth inhibition) [2] [mol/L] | Log GI50 (concentration in mol/L causing 50% growth inhibition) (Renal cancer cell lines) [mol/L] | Log GI50 (concentration in mol/L causing 50% growth inhibition) (Breast cancer cell lines) [mol/L] | Log GI50 (concentration in mol/L causing 50% growth inhibition) (Colon cancer cell lines) [mol/L] | Log GI50 (concentration in mol/L causing 50% growth inhibition) [3] [mol/L] | Log GI50 (concentration in mol/L causing 50% growth inhibition) [4] [mol/L] | Log GI50 (concentration in mol/L causing 50% growth inhibition) [5] [mol/L] | Log GI50 (concentration in mol/L causing 50% growth inhibition) [6] [mol/L] | Log GI50 (concentration in mol/L causing 50% growth inhibition) (CNS cancer cell lines) [mol/L] | GI50 (UO-31 (Renal)) [µM] | GI50 (SK-MEL-5 (Melanoma)) [µM] | GI50 (CAKI-1 (Renal)) [µM] | GI50 (CCRF-CEM (Leukemia)) [µM] | GI50 (NCI/ADR-RES (Breast)) [µM] | further results |
| --- | --- | --- | --- | --- | --- | --- | --- | --- | --- | --- | --- | --- | --- | --- | --- | --- | --- | --- | --- | --- | --- |
| COc1cc(C=CC(=O)c2ccc(F)cc2)ccc1OCCCCOc1cc2c(cc1OC)C(=O)N1CCC[C@H]1C=N2 [6b, 7-Methoxy-8-{4-[1-(4-fluorophenyl)-3-(4-hydroxy-3-methoxyphenyl)-2-propen-1-one]butyl}-oxy-(11aS)-1,2,3,11a-5H-pyrrolo[2,1-c][1,4]benzodiazepin-5-one] | 2.2 | 2.6 | −4.59 | −6.83 | promising cytotoxicity | −6.81 | −5.63 | −6.67 | −6.57 | −6.53 | −5.56 | −6.65 | −6.84 | −6.84 | −5.91 | 19.2 | 10 | 13.6 | 16 | 13.8 | GI50 [7]: 11.5 µM; GI50 (M14 (Melanoma)): 10.1 µM; GI50 (OVCAR-3 (Ovarian)): 37 µM; GI50 [8]: 19.2 µM |
| COc1cc(C=CC(=O)c2ccc(F)cc2)ccc1OCCCCCOc1cc2c(cc1OC)C(=O)N1CCC[C@H]1C=N2 [6c, 7-Methoxy-8-{5-[1-(4-fluorophenyl)-3-(4-hydroxy-3-methoxyphenyl)-2-propen-1-one]pentyl}-oxy-(11aS)-1,2,3,11a-5H-pyrrolo[2,1-c][1,4]benzodiazepin-5-one] | 2.4 | 2.9 | −4.61 | −6.86 | promising cytotoxicity | −6.79 | −5.05 | −6.39 | −6.31 | −6.76 | −4.60 | −6.38 | −6.59 | −6.38 | −5.68 | 21.1 | 20.9 | 15.8 | 25.1 | 17.4 | GI50 [7]: 65.3 µM; GI50 (M14 (Melanoma)): 14.5 µM; GI50 (OVCAR-3 (Ovarian)): 34.3 µM; GI50 [8]: 15.8 µM |
| COc1cc(C=CC(=O)c2c(C)nc3ccccc3c2C)ccc1OCCCOc1cc2c(cc1OC)C(=O)N1CCC[C@H]1C=N2 [10a, 7-Methoxy-8-{3-[3-(4-hydroxy-3-methoxyphenyl)-1-(2,4-dimethyl-3-quinolyl)-2-propen-1-one]propyl}-oxy-(11aS)-1,2,3,11a-5H-pyrrolo[2,1-c][1,4]benzodiazepin-5-one] | 4.0 | 4.6 | −4.43 | −6.94 | promising cytotoxicity | −6.90 | −5.05 | −6.39 | −6.31 | −6.76 | −5.10 | −6.38 | −6.88 | −6.79 | −6.61 | 21.6 | 20.9 | 15.8 | 12.5 | 17.6 | GI50 [7]: 10.8 µM; GI50 (M14 (Melanoma)): 14.5 µM; GI50 (OVCAR-3 (Ovarian)): 24.9 µM; GI50 [8]: 24.1 µM |
| COc1cc(C=CC(=O)c2c(C)nc3ccccc3c2C)ccc1OCCCCOc1cc2c(cc1OC)C(=O)N1CCC[C@H]1C=N2 [10b, 7-Methoxy-8-{4-[3-(4-hydroxy-3-methoxyphenyl)-1-(2,4-dimethyl-3-quinolyl)-2-propen-1-one]butyl}-oxy-(11aS)-1,2,3,11a-5H-pyrrolo[2,1-c][1,4]benzodiazepin-5-one] | 4.3 | 4.9 | −4.46 | −6.86 | promising cytotoxicity | −6.94 | −5.85 | −6.17 | −6.52 | −6.41 | −5.28 | −6.59 | −6.94 | −6.87 | −6.16 | 15.2 | 23.3 | 12.9 | 13.4 | 16.9 | GI50 [7]: 9 µM; GI50 (M14 (Melanoma)): 18.8 µM; GI50 (OVCAR-3 (Ovarian)): 26.3 µM; GI50 [8]: 19.5 µM |
